From US20230391796A1, “GLYCOSIDASE INHIBITORS AND USES THEREOF” (UNIVERSIDAD DE SEVILLA (US) -UNIVERSITY OF SEVILLE (US), priority 2020, published 2023)
Counter-ions that a name gives are not always drawn.

Assays:
[1] = target: β-N-acetylglucosaminidase (from jack bean); assay: Inhibition assay against commercial β-N-acetylglucosaminidase (jack bean), p-nitrophenyl N-acetyl-β-D-glucosaminide substrate; assay type: biochemical; settings: pH 5.5, 37° C.; average of three determinations ± s.e.m.; NI = no inhibition detected at 200 μM; read-out: Jack beans Hex
Experimental: (§1) Inhibition Assays Against Commercial β-N-acetylglucosaminidases
(§2) Inhibition constant (Ki) values were determined by spectrophotometrically measuring the residual hydrolytic activities of the glycosidases against p-nitrophenyl N-acetyl-β-D-glucosaminide. […] Each assay was performed in phosphate-citrate buffer and the reactions were initiated by addition of the enzyme to a solution of the substrate in the absence or presence of various inhibitor concentrations. The mixture was incubated for 10-30 min at 37° C. and the reaction was quenched by addition of 1 M Na2CO3. Reaction times were appropriate to obtain 10-20% conversion of the substrate in order to achieve linear rates. The absorbance of the resulting mixture was determined at 405 nm. Approximate values of Ki were determined using a fixed concentration of substrate (around the Km value for the different glycosidases) and various inhibitor concentrations. Full Ki determinations and enzyme inhibition mode were determined from the slope of Lineweaver-Burk plots and double reciprocal analysis using a Microsoft Office Excel 2007 program.

[2] = target: β-N-acetylglucosaminidase (from bovine kidney); assay: Inhibition assay against commercial β-N-acetylglucosaminidase (bovine kidney), p-nitrophenyl N-acetyl-β-D-glucosaminide substrate; assay type: biochemical; settings: pH 5.5, 37° C.; average of three determinations ± s.e.m.; NI = no inhibition detected at 200 μM; read-out: Bovine kidney Hex
Experimental: as §1, §2

[3] = target: β-N-acetylglucosaminidase (from human placenta); assay: Inhibition assay against commercial β-N-acetylglucosaminidase (human placenta), p-nitrophenyl N-acetyl-β-D-glucosaminide substrate; assay type: biochemical; settings: pH 5.5, 37° C.; average of three determinations ± s.e.m.; read-out: Human placenta Hex
Experimental: as §1, §2

hOGA = target: T1, hOGA (Homo sapiens, UniProt O60502); assay: Inhibition assay against hOGA, resorufin N-acetyl-β-D-glucosaminide fluorescence; assay type: biochemical; settings: 0.2 nM hOGA, 25 μM substrate, pH 7.1; Morrison Ki
T1 sequence (O60502 1-916): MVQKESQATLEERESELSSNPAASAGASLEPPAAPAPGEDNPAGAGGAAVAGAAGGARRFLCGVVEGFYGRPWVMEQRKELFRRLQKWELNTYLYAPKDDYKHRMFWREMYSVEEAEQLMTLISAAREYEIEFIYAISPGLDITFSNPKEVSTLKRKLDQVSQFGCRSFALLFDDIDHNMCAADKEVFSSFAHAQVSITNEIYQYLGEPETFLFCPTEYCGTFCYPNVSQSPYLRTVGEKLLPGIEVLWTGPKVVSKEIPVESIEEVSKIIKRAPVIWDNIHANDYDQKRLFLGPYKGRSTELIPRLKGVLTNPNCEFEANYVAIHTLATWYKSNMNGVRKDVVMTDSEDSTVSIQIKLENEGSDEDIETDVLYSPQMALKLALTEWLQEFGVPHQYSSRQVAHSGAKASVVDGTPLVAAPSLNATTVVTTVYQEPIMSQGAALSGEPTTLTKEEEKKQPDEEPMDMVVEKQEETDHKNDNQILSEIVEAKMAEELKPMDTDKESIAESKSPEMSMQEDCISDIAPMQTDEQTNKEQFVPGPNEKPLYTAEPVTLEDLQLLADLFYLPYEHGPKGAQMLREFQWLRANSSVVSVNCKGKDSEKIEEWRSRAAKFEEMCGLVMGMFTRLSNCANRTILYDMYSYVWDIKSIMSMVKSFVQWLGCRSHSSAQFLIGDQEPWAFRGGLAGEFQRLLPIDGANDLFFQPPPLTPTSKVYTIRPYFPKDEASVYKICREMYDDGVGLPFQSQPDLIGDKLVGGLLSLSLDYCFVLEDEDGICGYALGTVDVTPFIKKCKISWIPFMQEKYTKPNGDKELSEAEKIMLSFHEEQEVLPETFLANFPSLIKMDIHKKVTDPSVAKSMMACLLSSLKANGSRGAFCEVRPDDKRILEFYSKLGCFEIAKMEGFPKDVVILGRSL
Experimental: Inhibition Assays Against hOGA
Km=25 μM was measured with these conditions. Inhibition assays were run at 0.2 nM [hOGA] in the same buffer, in the presence or absence of various concentrations of inhibitors and at a fixed substrate concentration of 25 μM and 1% DMSO. First, inhibitor was serially diluted to the desired range of concentrations in 2% DMSO buffer. Next, 50 μL of inhibitor solutions at various concentrations in 2% DMSO Buffer was added to 50 μL of 0.8 nM enzyme and allowed to incubate at 25° C. for 5 minutes. 100 uL of 50 μM and 1% DMSO substrate was then added and reaction mixture was immediately mixed and aliquoted in 45 μL triplicates to a CORNING 384 well black plate. Fluorescence signal was measured continuously for 20 minutes at 37° C. in a BioTek Neo 2 Plate reader set at excitation and emission wavelengths of 572 and 610 nm, respectively. Max reaction rates for all inhibitor concentrations were calculated within Gen5 BioTek reader software. % Activity was subsequently calculated for each inhibitor concentration against the max reaction rate of uninhibited hOGA. GraphPad Prism 2016 was used to approximate the Morrison Ki values for each inhibitor.

[4] = target: T2, Recombinant Human Hexosaminidase A (HexA) (Homo sapiens, UniProt P06865); assay: Inhibition assay against rhHexA, 4-methylumbelliferone-N-acetyl-β-D-glucosaminide fluorescence; assay type: biochemical; settings: IC50 for lysosomal hHexA; NI = no inhibition detected at 200 μM
T2 construct: purchased R&D Systems 6237-GH-020
T2 sequence (P06865 89-529): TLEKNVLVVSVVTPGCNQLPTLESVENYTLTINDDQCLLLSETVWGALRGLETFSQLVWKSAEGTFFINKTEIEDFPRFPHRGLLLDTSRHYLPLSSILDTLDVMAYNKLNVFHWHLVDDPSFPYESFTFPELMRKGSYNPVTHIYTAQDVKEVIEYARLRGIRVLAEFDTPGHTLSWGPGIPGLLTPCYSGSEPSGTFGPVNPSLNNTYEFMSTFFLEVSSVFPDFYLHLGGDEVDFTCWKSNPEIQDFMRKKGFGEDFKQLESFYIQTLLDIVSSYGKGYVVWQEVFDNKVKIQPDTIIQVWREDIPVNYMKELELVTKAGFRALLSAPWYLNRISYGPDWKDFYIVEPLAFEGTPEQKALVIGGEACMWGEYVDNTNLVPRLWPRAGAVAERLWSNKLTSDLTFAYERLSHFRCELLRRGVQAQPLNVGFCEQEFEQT
Experimental: Inhibition Assays Against rhHexA
Human Hexosaminidase A (HexA) enzyme, purchased from R&D Systems (cat# 6237-GH-020), were determined by measuring the fluorescent signal corresponding to the rate of hydrolytic activity against the commercially available artificial substrate, 4-Methylumbelliferone-N-acetyl-β-D-glucosaminide. HexA activity assays were performed in a buffer of 100 mM sodium citrate, 250 NaCl, pH 4.5 and 1.0 nM [HexA], then stopped after 20 minutes with a solution of 1.0 M Tris, pH 9.5 to enhance fluorescent signal. Preliminary experiments have shown that reaction rates are linear for 20 minutes after substrate addition, and that 1.0 M Tris at pH 9.5 is sufficient for stopping activity, as signal is stable after stopping. Inhibition assays were run in the presence or absence of various concentrations of inhibitors and at a fixed substrate concentration of 100 μM and 1% DMSO. First, inhibitor was serially diluted to the desired range of concentrations in 2% DMSO buffer. Next, 25 μL, of inhibitor solutions at various concentrations in 2% DMSO Buffer was added to 25 μL, of 4.0 nM enzyme and allowed to incubate at 25° C. for 5 minutes. 50 μL of 200 μM and 1% DMSO substrate was then added and allowed to react for 20 minutes. 100 μL of stop solution was added to reaction mixture, and immediately mixed and aliquoted in 45 μL triplicates to a CORNING 384 well black plate. Fluorescence signal was measured in a BioTek Neo 2 Plate reader set at excitation and emission wavelengths of 355 and 450 nm, respectively. % Activity was subsequently calculated for each inhibitor concentration against the fluorescence signal of uninhibited HexA. […]

[5] = In vivo pharmacokinetics, plasma and brain concentrations; set-up: species or system C57BL/6 mice; settings: 3 mg/kg single dose
Experimental: Mean plasma concentration (ng/mL) of compound 4 in C57BL/6 mice after 3 mg/kg i.v. administration.
Mean brain concentration (ng/mL) of 4 in C57BL/6 mice after 3 mg/kg i.v. administration
Assay for Determination of the in vivo Pharmacokinetics.
The pharmacokinetic profiles of the compounds to be tested were evaluated in vivo in C57BL/6 mice (n=14) following a 3 mg/kg […] dose.

Ki [1]: 750 ± 40 nM | Ki [2]: 460 ± 30 nM | Ki [3]: 420 ± 30 nM | Ki (hOGA): 2.99 nM | IC50 [4]: 560 nM | brain concentration, start of the decrease (FIG. 2) ([5]; homogenized brain, initial value): 26 ng/g | plasma concentration, start of the decrease (FIG. 1) ([5]; plasma, initial value): 1100 ng/mL | concentration at 24 h ([5]; C57BL/6, mouse, intravenous, homogenized brain, 24 h, read-out: brain concentration after 24 h (FIG. 2)): 7.5 ng/g | concentration at 12 h ([5]; C57BL/6, mouse, intravenous, plasma, 12 h, read-out: plasma concentration after 12 h (FIG. 1)): 0.78 ng/mL
SMILES: CC(=O)N[C@H]1CN2/C(=N/Cc3ccccc3)SC[C@@H]2[C@@H](O)[C@@H]1O [Compound 4, 2-Acetamido-5-N,6-S-(N′-benzyliminomethylidene)-1,2-dideoxy-6-thionojirimycin Hydrochloride]
